In patent US20250041624A1, “METHOD FOR ENHANCING ACTIVITY OF PHOTOSENSITIZER BY MAGNETIC FIELD” (PEKING UNIVERSITY, priority 2021, published 2025):

Tests used:
[1] = Reaction rate of KI with 1O2 (I3− absorbance at 350 nm) under light and magnetic field; assay type: physicochemical
Method: (1) The photosensitizers Rose Bengal (RB) and potassium iodide KI are dissolved in water, with the concentrations of photosensitizer and KI is 10 μmol/L and 10 mmol/L, respectively in the resulting solution. […] The above UV-vis absorption spectra tests are performed in the strength range of the magnetic field from 0 to 850 mT respectively.
(2) The photosensitizer chlorin e6 (Ce6, Chlorin e6) and potassium iodide KI are dissolved in water, with the concentrations of the photosensitizer and KI of 10 μmol/L and 10 mmol/L in the resulting solutions. In a magnetic field with certain strength, the solutions are exposed to a 635 nm LED lamp (light emitting diode) at a power of 5 mW·cm^−2, and tested for absorption spectra every 15 seconds over 5 min, and the absorbance at 350 nm is recorded to obtain absorbance versus time curves. The above UV-vis absorption spectra are obtained at a magnetic field strength range from 0 to 850 mT, respectively.
External magnetic field is supplied by East Transformer (Beijing) EM4 electromagnets. Ultraviolet-visible absorption spectra are tested with Agilent 8453 UV/Visible spectrometer equipped with Agilent 89090A thermostat (±0.1° C.).
Under irradiation conditions, photosensitizer is excited to produce singlet oxygen ^1O2, and KI reacts with ^1O2 to give I2 and target detector, iodine triion I3^−, characterized by absorption bands centered at 300 and 350 nm in UV-vis absorption spectrum. The reaction rate is R, which is proportional to the slope of absorbance-time curve of iodine triion I3^− at 350 nm.
In the present invention, the magnetic field effects (MFEs) is quantified by mfeR, the change rate of the reaction rate R, mfeR=(RB−R0)/R0×100%, where R0 is the reaction rate at a magnetic field strength of 0 mT and RB is the reaction rate at a magnetic field strength of B mT.
(3) The RB/KI solution in experiment (1) of this Example is placed in a magnetic field modulated with square wave (90 s for the first period, a magnetic field strength of 0 mT for the first 45 s and 100 mT for the last 45 s; 60 s for the last three cycles, a magnetic field strength of 0 mT for the first 30 s and 100 mT for the last 30 s). Under 561 nm LED (Light Emitting Diode) irradiation with 5 mW·cm^−2, absorption spectra are tested every 5 seconds over 5 min. and the absorbance at 350 nm is recorded, to obtain an absorbance-time curve, as shown in FIG. 6.

[2] = Body weight, abnormal signs and H&E staining of major organs of treated mice; assay type: in vivo; details: all groups
Description: Test (two): After sacrificing the mice on day 14, tumor tissue and major organs (heart, liver, spleen, lungs and kidney) are collected and detected histologically. Tumor tissue and major organs are fixed by 10% neutral formalin solution. Hematoxylin-Eosin (H&E) staining is used to analyze toxicity of light and magnetic field effects on tumor and normal organs. Terminal deoxynucleotidyl transferase-mediated dUTP nick end labeling (TUNEL) staining is used to detect apoptosis in tumor tissue, and expression of cleaved Caspase-3, Bax and Bcl-2 in tumor tissue is simultaneously detected.

SMILES: O=C1OC2(c3cc(I)c(O)c(I)c3Oc3c2cc(I)c(O)c3I)c2c(Cl)c(Cl)c(Cl)c(Cl)c21 [RB, Rose Bengal]
- mfeR (change rate of reaction rate R of KI with 1O2) ([1]; RB 10 μmol/L, KI 10 mmol/L, 561 nm 5 mW·cm−2, maximum at MF=80-135 mT): 46%
- mfeR (change rate of reaction rate R of KI with 1O2) ([1]; RB 10 μmol/L, KI 10 mmol/L, 561 nm 5 mW·cm−2, minimum at MF=14 mT): 33%
- increase of R value on average compared to 0 mT ([1]; RB/KI, square-wave modulated field, 100 mT vs 0 mT, FIG. 7): about 45%
- mfeR (change rate of reaction rate R of KI with 1O2) ([1]; RB, MF from 34 to 355 mT, FIG. 5): > 0%
- mfeR (change rate of reaction rate R of KI with 1O2) ([1]; RB, MF from 50 to 220 mT, FIG. 5): > 20%
- systemic toxicity (H&E staining of major organs) ([2]; heart, liver, spleen, lungs and kidney, day 14, FIG. 20): do not result in systemic toxicity
- body weight loss or other abnormal signs ([2]; mice, 14 days): No body weight loss or other abnormal signs
